This passage reports TGI results from PubChem BioAssay (NCI).

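Following 48 hours of exposure in 96-well plates, responses at five concentrations were used to interpolate endpoints linearly. At the TGI there is no net growth.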

The subject of the first test is SF-268 CNS. Briefly: NCI-60 cell line screen, 48 h.
The compound `CN(CC1(CO)CCC1)c1cc(Cl)nc(N)n1` registered a TGI of more than 100 µM.
`COc1cc(C=C2C(C)=NN(c3cccc(Cl)c3)C23SCC(=O)N3c2nc3ccccc3s2)ccc1O` (stereo not drawn) showed a TGI of 57.9 µM.
Take `CC[C@H]1C=CCC[C@@]2(C[C@@H]3CC[C@@H]4[C@H](C(=O)OCCCCCCCCCCCCCCCC(=O)O)[C@]5(CCC[C@@H](C)O5)NC(=[N+]34)N2)O1`: the TGI amounted to 3.07 µM.
Still for that read-out and setting: the value for `CCOC(=O)c1c2c(n3ccccc13)C(=O)c1ccccc1C2=O` was more than 100 µM.

The next test relates to KM12 colon. Description: NCI-60 cell line screen, 48 h.
`CN(CC1(CO)CCC1)c1cc(Cl)nc(N)n1` yielded a TGI of more than 100 µM.
The same measure, in the same setting: with `COc1cc(C=C2C(C)=NN(c3cccc(Cl)c3)C23SCC(=O)N3c2nc3ccccc3s2)ccc1O` (stereo not drawn) the figure was more than 95.1 µM; with `CC[C@H]1C=CCC[C@@]2(C[C@@H]3CC[C@@H]4[C@H](C(=O)OCCCCCCCCCCCCCCCC(=O)O)[C@]5(CCC[C@@H](C)O5)NC(=[N+]34)N2)O1`, 5.76 µM; with `CCOC(=O)c1c2c(n3ccccc13)C(=O)c1ccccc1C2=O`, more than 100 µM.

Another test relates to 786-0 renal. Description: NCI-60 cell line screen, 48 h.
Take `CN(CC1(CO)CCC1)c1cc(Cl)nc(N)n1`: the TGI was more than 100 µM.
On the same count and under the same terms, with `COc1cc(C=C2C(C)=NN(c3cccc(Cl)c3)C23SCC(=O)N3c2nc3ccccc3s2)ccc1O` (stereo not drawn) the figure was more than 91.5 µM.
On the same count and under the same terms, the value for `CC[C@H]1C=CCC[C@@]2(C[C@@H]3CC[C@@H]4[C@H](C(=O)OCCCCCCCCCCCCCCCC(=O)O)[C@]5(CCC[C@@H](C)O5)NC(=[N+]34)N2)O1` was 0.418 µM.
`CCOC(=O)c1c2c(n3ccccc13)C(=O)c1ccccc1C2=O` had a TGI of more than 100 µM.

For another test, the system named is COLO 205 colon. Description: NCI-60 cell line screen, 48 h.
As to `CN(CC1(CO)CCC1)c1cc(Cl)nc(N)n1`, the TGI is more than 100 µM.
Take `COc1cc(C=C2C(C)=NN(c3cccc(Cl)c3)C23SCC(=O)N3c2nc3ccccc3s2)ccc1O` (stereo not drawn): the TGI is 32.9 µM.
In turn, `CC[C@H]1C=CCC[C@@]2(C[C@@H]3CC[C@@H]4[C@H](C(=O)OCCCCCCCCCCCCCCCC(=O)O)[C@]5(CCC[C@@H](C)O5)NC(=[N+]34)N2)O1` registered a TGI of 1.34 µM.
On the same count and under the same terms, the value for `CCOC(=O)c1c2c(n3ccccc13)C(=O)c1ccccc1C2=O` was more than 100 µM.

For another test, the system named is SF-539 CNS. Briefly: NCI-60 cell line screen, 48 h.
In turn, `CN(CC1(CO)CCC1)c1cc(Cl)nc(N)n1` gave a TGI of more than 100 µM.
Same read-out and setting: with `COc1cc(C=C2C(C)=NN(c3cccc(Cl)c3)C23SCC(=O)N3c2nc3ccccc3s2)ccc1O` (stereo not drawn) the figure was more than 58.4 µM; with `CC[C@H]1C=CCC[C@@]2(C[C@@H]3CC[C@@H]4[C@H](C(=O)OCCCCCCCCCCCCCCCC(=O)O)[C@]5(CCC[C@@H](C)O5)NC(=[N+]34)N2)O1`, 3.12 µM; with `CCOC(=O)c1c2c(n3ccccc13)C(=O)c1ccccc1C2=O`, more than 100 µM.

The test system of a further test is RXF 393 renal. Description: NCI-60 cell line screen, 48 h.
For `CN(CC1(CO)CCC1)c1cc(Cl)nc(N)n1`, the TGI is more than 100 µM.
In the case of `COc1cc(C=C2C(C)=NN(c3cccc(Cl)c3)C23SCC(=O)N3c2nc3ccccc3s2)ccc1O` (stereo not drawn), the TGI turned out to be 62.7 µM.
Still for that read-out and setting: the value for `CC[C@H]1C=CCC[C@@]2(C[C@@H]3CC[C@@H]4[C@H](C(=O)OCCCCCCCCCCCCCCCC(=O)O)[C@]5(CCC[C@@H](C)O5)NC(=[N+]34)N2)O1` was 1.9 µM; that for `CCOC(=O)c1c2c(n3ccccc13)C(=O)c1ccccc1C2=O` was more than 100 µM.

The subject of the next test is UACC-257 melanoma. Description: NCI-60 cell line screen, 48 h.
`CN(CC1(CO)CCC1)c1cc(Cl)nc(N)n1` registered a TGI of more than 100 µM.
As for `COc1cc(C=C2C(C)=NN(c3cccc(Cl)c3)C23SCC(=O)N3c2nc3ccccc3s2)ccc1O` (stereo not drawn), the TGI is more than 100 µM.
Same read-out and setting: the value for `CCOC(=O)c1c2c(n3ccccc13)C(=O)c1ccccc1C2=O` was more than 100 µM.

The next test deals with RPMI-8226 leukemia. Description: NCI-60 cell line screen, 48 h.
`CN(CC1(CO)CCC1)c1cc(Cl)nc(N)n1` showed a TGI of more than 100 µM.
Same read-out and setting: the value for `COc1cc(C=C2C(C)=NN(c3cccc(Cl)c3)C23SCC(=O)N3c2nc3ccccc3s2)ccc1O` (stereo not drawn) was 30.7 µM; that for `CC[C@H]1C=CCC[C@@]2(C[C@@H]3CC[C@@H]4[C@H](C(=O)OCCCCCCCCCCCCCCCC(=O)O)[C@]5(CCC[C@@H](C)O5)NC(=[N+]34)N2)O1` was 0.582 µM.
On the same count and under the same terms, with `CCOC(=O)c1c2c(n3ccccc13)C(=O)c1ccccc1C2=O` the figure was more than 100 µM.

The subject of a further test is SR leukemia. Description: NCI-60 cell line screen, 48 h.
`CN(CC1(CO)CCC1)c1cc(Cl)nc(N)n1` displayed a TGI of more than 100 µM.
Same read-out and setting: the value for `COc1cc(C=C2C(C)=NN(c3cccc(Cl)c3)C23SCC(=O)N3c2nc3ccccc3s2)ccc1O` (stereo not drawn) was 29.2 µM.
Turning to `CC[C@H]1C=CCC[C@@]2(C[C@@H]3CC[C@@H]4[C@H](C(=O)OCCCCCCCCCCCCCCCC(=O)O)[C@]5(CCC[C@@H](C)O5)NC(=[N+]34)N2)O1`, the TGI was determined as 0.357 µM.
Still for that read-out and setting: the value for `CCOC(=O)c1c2c(n3ccccc13)C(=O)c1ccccc1C2=O` was more than 100 µM.

The next test relates to SN12C renal. Briefly: NCI-60 cell line screen, 48 h.
`CN(CC1(CO)CCC1)c1cc(Cl)nc(N)n1` showed a TGI of more than 100 µM.
The same measure, in the same setting: with `COc1cc(C=C2C(C)=NN(c3cccc(Cl)c3)C23SCC(=O)N3c2nc3ccccc3s2)ccc1O` (stereo not drawn) the figure was more than 100 µM; with `CC[C@H]1C=CCC[C@@]2(C[C@@H]3CC[C@@H]4[C@H](C(=O)OCCCCCCCCCCCCCCCC(=O)O)[C@]5(CCC[C@@H](C)O5)NC(=[N+]34)N2)O1`, 7.93 µM.
Consider `CCOC(=O)c1c2c(n3ccccc13)C(=O)c1ccccc1C2=O`, for which the TGI is more than 100 µM.

For another test, the system named is NCI-H23 lung. Briefly: NCI-60 cell line screen, 48 h.
In turn, `CN(CC1(CO)CCC1)c1cc(Cl)nc(N)n1` yielded a TGI of more than 100 µM.
On the same count and under the same terms, the value for `COc1cc(C=C2C(C)=NN(c3cccc(Cl)c3)C23SCC(=O)N3c2nc3ccccc3s2)ccc1O` (stereo not drawn) was 84.2 µM.
Still for that read-out and setting: with `CC[C@H]1C=CCC[C@@]2(C[C@@H]3CC[C@@H]4[C@H](C(=O)OCCCCCCCCCCCCCCCC(=O)O)[C@]5(CCC[C@@H](C)O5)NC(=[N+]34)N2)O1` the figure was 4.83 µM; with `CCOC(=O)c1c2c(n3ccccc13)C(=O)c1ccccc1C2=O`, more than 100 µM.

The subject of the next test is LOX IMVI melanoma. Description: NCI-60 cell line screen, 48 h.
Compound `CN(CC1(CO)CCC1)c1cc(Cl)nc(N)n1` returned a TGI of more than 100 µM.
Same read-out and setting: the value for `COc1cc(C=C2C(C)=NN(c3cccc(Cl)c3)C23SCC(=O)N3c2nc3ccccc3s2)ccc1O` (stereo not drawn) was more than 69 µM.
The same measure, in the same setting: with `CC[C@H]1C=CCC[C@@]2(C[C@@H]3CC[C@@H]4[C@H](C(=O)OCCCCCCCCCCCCCCCC(=O)O)[C@]5(CCC[C@@H](C)O5)NC(=[N+]34)N2)O1` the figure was 0.284 µM; with `CCOC(=O)c1c2c(n3ccccc13)C(=O)c1ccccc1C2=O`, more than 100 µM.

The next test deals with T-47D breast. Description: NCI-60 cell line screen, 48 h.
In turn, `CN(CC1(CO)CCC1)c1cc(Cl)nc(N)n1` came in with a TGI of more than 100 µM.
On the same count and under the same terms, the value for `COc1cc(C=C2C(C)=NN(c3cccc(Cl)c3)C23SCC(=O)N3c2nc3ccccc3s2)ccc1O` (stereo not drawn) was more than 100 µM; that for `CC[C@H]1C=CCC[C@@]2(C[C@@H]3CC[C@@H]4[C@H](C(=O)OCCCCCCCCCCCCCCCC(=O)O)[C@]5(CCC[C@@H](C)O5)NC(=[N+]34)N2)O1` was 11.9 µM.
On the same count and under the same terms, with `CCOC(=O)c1c2c(n3ccccc13)C(=O)c1ccccc1C2=O` the figure was more than 100 µM.

Another test concerns HCT-15 colon. Briefly: NCI-60 cell line screen, 48 h.
For `CN(CC1(CO)CCC1)c1cc(Cl)nc(N)n1`, the TGI is more than 100 µM.
The compound `COc1cc(C=C2C(C)=NN(c3cccc(Cl)c3)C23SCC(=O)N3c2nc3ccccc3s2)ccc1O` (stereo not drawn) returned a TGI of more than 93.6 µM.
For `CC[C@H]1C=CCC[C@@]2(C[C@@H]3CC[C@@H]4[C@H](C(=O)OCCCCCCCCCCCCCCCC(=O)O)[C@]5(CCC[C@@H](C)O5)NC(=[N+]34)N2)O1`, the TGI was found to be 7.77 µM.
The same measure, in the same setting: with `CCOC(=O)c1c2c(n3ccccc13)C(=O)c1ccccc1C2=O` the figure was more than 100 µM.

The next test concerns SW-620 colon. Description: NCI-60 cell line screen, 48 h.
In turn, `CN(CC1(CO)CCC1)c1cc(Cl)nc(N)n1` showed a TGI of more than 100 µM.
For `COc1cc(C=C2C(C)=NN(c3cccc(Cl)c3)C23SCC(=O)N3c2nc3ccccc3s2)ccc1O` (stereo not drawn), the TGI is 96.9 µM.
For the compound `CC[C@H]1C=CCC[C@@]2(C[C@@H]3CC[C@@H]4[C@H](C(=O)OCCCCCCCCCCCCCCCC(=O)O)[C@]5(CCC[C@@H](C)O5)NC(=[N+]34)N2)O1`, the TGI turned out to be 6.37 µM.
